Source: article PMC4886219, “Bioengineered kidney tubules efficiently excrete uremic toxins” (Scientific Reports, 2016)
Structures can show the parent of a compound that is named as a salt. Where two headings read alike, the source gives them in different places.

What was measured:
[1] = parameters: method as in Duranton et al.[6]; conditions: mean plasma levels in ESRD patients; ref Duranton et al.[6]; cited from earlier work
OAT3 = target: T1, OAT3 (Homo sapiens, UniProt Q8TCC7); assay: Fluorescein inhibition assay in ciPTEC-OAT3 flat monolayers
T1 sequence (Q8TCC7 1-542): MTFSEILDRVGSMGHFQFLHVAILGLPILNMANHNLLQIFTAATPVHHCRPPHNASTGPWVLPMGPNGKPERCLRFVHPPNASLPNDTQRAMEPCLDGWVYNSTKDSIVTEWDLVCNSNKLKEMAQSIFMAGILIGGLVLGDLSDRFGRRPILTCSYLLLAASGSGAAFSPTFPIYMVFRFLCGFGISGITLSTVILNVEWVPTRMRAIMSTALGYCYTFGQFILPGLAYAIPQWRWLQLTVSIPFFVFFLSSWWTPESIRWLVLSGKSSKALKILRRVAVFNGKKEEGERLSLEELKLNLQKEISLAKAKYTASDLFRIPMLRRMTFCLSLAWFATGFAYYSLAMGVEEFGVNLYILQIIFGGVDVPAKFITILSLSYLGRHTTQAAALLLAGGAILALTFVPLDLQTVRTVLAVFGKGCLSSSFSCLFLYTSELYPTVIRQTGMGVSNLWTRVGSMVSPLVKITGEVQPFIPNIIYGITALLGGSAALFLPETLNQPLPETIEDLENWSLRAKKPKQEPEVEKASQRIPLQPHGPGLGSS

OAT1 [2] = target: T2, OAT1 (Homo sapiens, UniProt Q4U2R8); assay: Fluorescein inhibition assay in ciPTEC-OAT1 flat monolayers
T2 sequence (Q4U2R8 1-563): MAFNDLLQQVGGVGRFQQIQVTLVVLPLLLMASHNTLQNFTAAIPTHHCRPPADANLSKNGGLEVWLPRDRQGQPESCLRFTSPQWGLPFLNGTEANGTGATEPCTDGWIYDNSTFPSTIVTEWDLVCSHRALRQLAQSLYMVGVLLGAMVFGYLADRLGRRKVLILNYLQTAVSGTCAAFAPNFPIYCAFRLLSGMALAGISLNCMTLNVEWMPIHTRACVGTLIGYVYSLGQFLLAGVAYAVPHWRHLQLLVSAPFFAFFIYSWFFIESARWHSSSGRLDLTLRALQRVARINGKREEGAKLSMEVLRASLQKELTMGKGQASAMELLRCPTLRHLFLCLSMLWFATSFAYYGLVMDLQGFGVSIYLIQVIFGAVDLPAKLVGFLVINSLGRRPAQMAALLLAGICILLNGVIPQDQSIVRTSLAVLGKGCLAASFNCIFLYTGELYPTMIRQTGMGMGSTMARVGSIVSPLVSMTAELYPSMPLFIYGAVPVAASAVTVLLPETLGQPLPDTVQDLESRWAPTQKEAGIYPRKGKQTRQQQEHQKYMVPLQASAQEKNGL

[3] = system: parent ciPTEC models lacking OAT1; assay: MTT cell viability assay in parent ciPTEC lacking OAT1; type: cell-based, human; conditions: parent ciPTEC lacking OAT1, in presence of efflux pump inhibitors
Method: After 4 hours of incubation, the intracellular
Monolayer polarization and transepithelial barrier function
Next, cells were incubated with
The mR NA expression level s of
PCR Master Mix (Applied Biosystems, Branchburg, NJ).

BCRP = system: BCRP; parameters: method as in earlier work; conditions: vesicular transport assay; ref 14 (Mutsaers et al.); cited from earlier work
MRP4 = system: MRP4; parameters: method as in earlier work; conditions: vesicular transport assay; ref 14 (Mutsaers et al.); cited from earlier work
[4] = system: bioengineered renal tubules (ciPTEC-OAT1 on HFM); assay: Transepithelial transport (clearance) of indoxyl sulfate and kynurenic acid in bioengineered renal tubules; type: cell-based; conditions: absence of human serum albumin; perfusion 10 min, 100 μM toxin
OAT1 [5] = target: T2, OAT1; assay: in vitro; conditions: pH 7.4, inhibition of indoxyl sulfate uptake
OAT1 [6] = target: T2, OAT1; assay: Uptake of indoxyl sulfate and kynurenic acid by ciPTEC-OAT1 (LC-MS/MS); conditions: 10 min, 37°C
[7] = read-out: ciPTEC-OAT1 IC50 (inhibition of fluorescein uptake), 1 μM fluorescein, 10 min, 37°C, flat monolayers, mean ± S.E.M.
[8] = read-out: ciPTEC-OAT3 IC50 (inhibition of fluorescein uptake), 1 μM fluorescein, 10 min, 37°C, flat monolayers, mean ± S.E.M.

Row | IC50 (OAT3) [µM] | IC50 (OAT1 [2]) [µM] | Compound | Cm in ESRD patients [1] [µM] | also measured
1 | 22 ± 9 | – | O=C(O)CNC(=O)c1ccccc1 [Hippuric acid] | 398 | –
2 | 148 ± 60 | 19 ± 2 | O=C(O)Cc1c[nH]c2ccccc12 [Indole-3-acetic acid] | – | –
3 | – | – | O=S(=O)(O)Oc1c[nH]c2ccccc12 [Indoxyl sulfate] | 110 | TC50 (cell viability, MTT) [3]: 3000 ± 500 µM; inhibition of BCRP (in words) (BCRP): potent inhibitors; inhibition of MRP4 (in words) (MRP4): potent inhibitors
4 | 527 ± 218 | 492 ± 68 | O=C(O)[C@H]1O[C@@H](Oc2c[nH]c3ccccc23)[C@H](O)[C@@H](O)[C@@H]1O [Indoxyl-β-glucuronide] | 9 | –
5 | 219 ± 66 | 65 ± 8 | Nc1ccccc1C(=O)C[C@H](N)C(=O)O [L-Kynurenine] | 6 | –
6 | – | – | Cc1ccc(O[C@@H]2O[C@H](C(=O)O)[C@@H](O)[C@H](O)[C@H]2O)cc1 [p-Cresylglucuronide] | 44 | IC50 (OAT1 [2]; [7]): 2650 ± 922 µM; IC50 (OAT3; [8]): 588 ± 81 µM
7 | – | – | Cc1ccc(OS(=O)(=O)O)cc1 [p-Cresylsulfate] | 675 | IC50 (OAT1 [2]; [7]): 79 ± 14 µM; IC50 (OAT3; [8]): 112 ± 19 µM

Row | Compound | IC50 (OAT3) [µM] | IC50 (OAT1 [2]) [µM] | Cm in ESRD patients [1] [µM] | also measured
8 | O=C(O)c1cc(=O)c2ccccc2[nH]1 [Kynurenic acid] | 6 ± 1 | 6 ± 1 | – | transepithelial clearance [4]: 72 ± 20 μl.min^−1.cm^−2; inhibition at 10 min, 100 μM (OAT1 [5]): 64 ± 13%; uptake by ciPTEC-OAT1 monolayers (OAT1 [6]; toxin 3 μM): 2.7 ± 0.3 pmol.min^−1.cm^−2; uptake by ciPTEC-OAT1 monolayers (OAT1 [6]; toxin 30 μM): 5.9 ± 0.5 pmol.min^−1.cm^−2
